Reference: ChEMBL document CHEMBL5506022, “Discovery of Novel Dual Inhibitors Targeting Mutant IDH1 and NAMPT for the Treatment of Glioma with IDH1Mutation” (J Med Chem, 2024)

Assays:
[1] = target: Nicotinamide phosphoribosyltransferase (Homo sapiens, UniProt P43490)
[2] = target: Isocitrate dehydrogenase [NADP] cytoplasmic (Homo sapiens, UniProt O75874); experiment: Inhibition of wildtype IDH1 (unknown origin) using DL-isocitrate as substrate incubated for 60 mins in presence of NADP by fluorescence microplate reader
Chain of Isocitrate dehydrogenase [NADP] cytoplasmic (Homo sapiens, UniProt O75874) (O75874 whole entry): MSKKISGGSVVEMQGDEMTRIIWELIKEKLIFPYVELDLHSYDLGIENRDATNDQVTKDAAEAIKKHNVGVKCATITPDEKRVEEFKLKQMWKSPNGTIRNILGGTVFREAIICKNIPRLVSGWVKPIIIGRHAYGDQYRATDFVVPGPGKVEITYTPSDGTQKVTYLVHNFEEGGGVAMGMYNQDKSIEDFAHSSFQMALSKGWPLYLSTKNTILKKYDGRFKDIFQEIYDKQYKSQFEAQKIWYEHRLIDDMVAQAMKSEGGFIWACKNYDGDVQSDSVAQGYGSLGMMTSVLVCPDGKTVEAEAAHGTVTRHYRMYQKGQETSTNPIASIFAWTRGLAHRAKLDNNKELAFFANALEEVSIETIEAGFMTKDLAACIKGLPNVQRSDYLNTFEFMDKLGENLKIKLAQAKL

[3] = target: Isocitrate dehydrogenase [NADP] cytoplasmic (Homo sapiens, UniProt O75874, R132C); experiment: Inhibition of recombinant IDH1 R132C mutant (unknown origin) using alpha-ketoglutarate as substrate incubated for 60 mins in presence of NADPH by fluorescence microplate reader
Chain of Isocitrate dehydrogenase [NADP] cytoplasmic (Homo sapiens, UniProt O75874, R132C) (O75874 2-414 R132C limits assumed): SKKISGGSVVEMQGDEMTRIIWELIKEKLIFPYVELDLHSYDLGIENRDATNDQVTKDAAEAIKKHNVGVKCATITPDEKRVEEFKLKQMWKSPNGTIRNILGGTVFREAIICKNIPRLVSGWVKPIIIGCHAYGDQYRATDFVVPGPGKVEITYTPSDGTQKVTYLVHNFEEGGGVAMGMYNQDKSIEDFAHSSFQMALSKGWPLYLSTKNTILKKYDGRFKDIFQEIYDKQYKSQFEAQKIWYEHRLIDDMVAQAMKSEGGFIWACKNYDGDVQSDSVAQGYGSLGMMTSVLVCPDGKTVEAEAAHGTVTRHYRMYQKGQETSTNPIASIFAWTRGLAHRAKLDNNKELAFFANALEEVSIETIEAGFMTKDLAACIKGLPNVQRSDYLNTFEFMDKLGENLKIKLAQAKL

[4] = test system: U-87 MG; experiment: Antiproliferative activity against human U-87 MG cells harboring wildtype IDH1 assessed as inhibition of cell growth incubated for 72 hrs by CCK8 assay; format: functional, cell-based, U-87MG ATCC
[5] = test system: U-87 MG; format: functional, cell-based, U-87MG ATCC; conditions: Homo sapiens, 48 h
[6] = test system: U-87 MG; experiment: Antiproliferative activity against human U-87 MG cells harboring wildtype IDH1 assessed as inhibition of cell growth incubated for 48 hrs by CCK8 assay; format: functional, cell-based, U-87MG ATCC
[7] = test system: U-87 MG; format: functional, cell-based, U-87MG ATCC; conditions: Homo sapiens, 72 h
[8] = test system: U-87 MG; format: functional, cell-based, U-87MG ATCC; conditions: Homo sapiens, 24 h
[9] = test system: U-87 MG; experiment: Antiproliferative activity against human U-87 MG cells harboring wildtype IDH1 assessed as inhibition of cell growth incubated for 24 hrs by CCK8 assay; format: functional, cell-based, U-87MG ATCC
[10] = test system: U-87 MG; experiment: cells; conditions: Homo sapiens, 48 h, read-out: Activity
[11] = test system: U-87 MG; format: functional, Homo sapiens, U-87MG ATCC; conditions: dose 1 µM; time 48 hrs
[12] = test system: U-87 MG; format: functional, U-87MG ATCC; conditions: Homo sapiens, time 48 hrs, read-out: Activity
[13] = test system: U-87 MG; format: functional, Homo sapiens, U-87MG ATCC; conditions: time 48 hrs
[14] = test system: U-87 MG; format: functional, Homo sapiens, U-87MG ATCC; conditions: dose 1 µM; time 48 hrs; remark: listed apart in the source
[15] = test system: U-87 MG; experiment: Synergistic antiproliferative activity against human U-87 MG cells harboring wildtype IDH1 assessed as inhibition of cell growth incubated for 48 hrs in presence of FK866 by CCK8 assay; format: functional, cell-based, U-87MG ATCC
[16] = test system: U-87 MG; experiment: Synergistic antiproliferative activity against human U-87 MG cells harboring wildtype IDH1 assessed as combination index incubated for 48 hrs in presence of FK866 by CCK8 assay; format: functional, U-87MG ATCC
[17] = test system: U-87 MG; format: functional, Homo sapiens, U-87MG ATCC; conditions: dose 1 µM; time 48 hrs; remark: listed apart in the source
[18] = test system: U-87 MG; format: functional, Homo sapiens, U-87MG ATCC; conditions: time 48 hrs; remark: listed apart in the source
[19] = test system: U-87 MG; format: functional, cell-based, U-87MG ATCC; conditions: Homo sapiens, 48 h; remark: listed apart in the source

Chain of Nicotinamide phosphoribosyltransferase (P43490 whole entry): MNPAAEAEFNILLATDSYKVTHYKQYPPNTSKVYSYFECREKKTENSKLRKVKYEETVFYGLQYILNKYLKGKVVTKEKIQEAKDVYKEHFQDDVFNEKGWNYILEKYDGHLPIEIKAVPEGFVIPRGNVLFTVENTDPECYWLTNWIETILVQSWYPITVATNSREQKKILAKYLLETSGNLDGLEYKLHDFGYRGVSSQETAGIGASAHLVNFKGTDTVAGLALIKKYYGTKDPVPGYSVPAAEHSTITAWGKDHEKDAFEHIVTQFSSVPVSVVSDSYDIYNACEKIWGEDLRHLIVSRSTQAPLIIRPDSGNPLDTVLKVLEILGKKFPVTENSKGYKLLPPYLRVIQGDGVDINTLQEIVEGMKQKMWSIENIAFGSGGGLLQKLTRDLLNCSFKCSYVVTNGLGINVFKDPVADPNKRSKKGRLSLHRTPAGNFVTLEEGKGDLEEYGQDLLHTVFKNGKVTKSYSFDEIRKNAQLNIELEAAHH

| Structure (SMILES) | IC50 [1] [nM] | IC50 [2] [nM] | IC50 [3] [nM] | also measured |
| --- | --- | --- | --- | --- |
| CC(C)[C@H]1COC(=O)N1c1ccnc(N[C@@H](C)c2ccc(-c3ccc(NC(=O)c4cccnc4)cc3)cc2)n1 | 109 | 36700 | 509 |  |
| C[C@H](Nc1nccc(N2C(=O)OC[C@@H]2[C@@H](C)OC(C)(C)C)n1)c1ccc(-c2ccc(NC(=O)/C=C/c3cccnc3)cc2)cc1 | 42.5 | 14700 | 78.7 |  |
| CC(C)[C@H]1COC(=O)N1c1ccnc(N[C@@H](C)c2ccc(NC(=O)CNC(=O)/C=C/c3cccnc3)cc2)n1 | 15.1 | 4430 | 362 |  |
| CC(C)[C@H]1COC(=O)N1c1ccnc(N[C@@H](C)c2ccc(NC(=O)C3CCN(C(=O)/C=C/c4cccnc4)C3)cc2)n1 (stereo not given in full) | 54.1 | 3710 | 430 |  |
| C[C@H](Nc1nccc(N2C(=O)OC[C@@H]2Cc2ccccc2)n1)c1ccc(-c2ccc(NC(=O)COc3cccnc3)cc2)cc1 | 65.4 | 35900 | 294 |  |
| C[C@H](Nc1nccc(N2C(=O)OC[C@@H]2[C@@H](C)OC(C)(C)C)n1)c1ccc(-c2ccc(NC(=O)COc3cccnc3)cc2)cc1 | 51.4 | 33900 | 252 |  |
| CC(C)[C@H]1COC(=O)N1c1ccnc(N[C@@H](C)c2ccc(NC(=O)C3CCN(C(=O)/C=C/c4cccnc4)CC3)cc2)n1 | 81.2 | 11100 | 308 |  |
| CC(C)[C@H]1COC(=O)N1c1ccnc(N[C@@H](C)c2ccc(NC(=O)CCCCNC(=O)/C=C/c3cccnc3)cc2)n1 | 25.5 | 6180 | 405 |  |
| CC(C)[C@H]1COC(=O)N1c1ccnc(N[C@@H](C)c2ccc(-c3ccc(NC(=O)COc4cccnc4)cc3)cc2)n1 | 33.1 | 8520 | 114 | IC50 [4]: 540 nM; IC50 [5]: 1180 nM; IC50 [6]: 890 nM; IC50 [7]: 570 nM; IC50 [8]: 1660 nM; IC50 [9]: 1020 nM |
| CC(C)[C@H]1COC(=O)N1c1ccnc(N[C@@H](C)c2ccc(-c3ccc(NC(=O)c4cc5ncccc5o4)cc3)cc2)n1 | 279 | 5720 | 232 |  |
| CC(C)[C@H]1COC(=O)N1c1ccnc(N[C@@H](C)c2ccc(-c3ccc(NC(=O)c4cc5cnccc5[nH]4)cc3)cc2)n1 | 127 | 9160 | 171 |  |
| CC(C)[C@H]1COC(=O)N1c1ccnc(N[C@@H](C)c2ccc(NC(=O)CCCNC(=O)/C=C/c3cccnc3)cc2)n1 | 45.7 | 9400 | 355 |  |
| C[C@H](Nc1nccc(N2C(=O)OC[C@@H]2[C@@H](C)O)n1)c1ccc(-c2ccc(NC(=O)COc3cccnc3)cc2)cc1 | 42.2 | 6940 | 138 |  |
| CC(C)[C@H]1COC(=O)N1c1ccnc(N[C@@H](C)c2ccc(-c3ccc(NC(=O)c4ccc5nccn5c4)cc3)cc2)n1 | 193 | 9160 | 73.2 | IC50 [4]: 3260 nM; IC50 [5]: 3260 nM; IC50 [6]: 1210 nM; IC50 [7]: 1460 nM; IC50 [8]: 3110 nM; IC50 [9]: 2660 nM |
| C[C@H](Nc1nccc(N2C(=O)OC[C@@H]2[C@@H](C)O)n1)c1ccc(-c2ccc(NC(=O)c3ccc4nccn4c3)cc2)cc1 | 24.8 | 15700 | 102 |  |
| CC(C)[C@H]1COC(=O)N1c1ccnc(N[C@@H](C)c2ccc(NC(=O)CCNC(=O)/C=C/c3cccnc3)cc2)n1 | 22.4 | 3240 | 284 |  |
| C[C@H](Nc1nccc(N2C(=O)OC[C@@H]2Cc2ccccc2)n1)c1ccc(-c2ccc(NC(=O)c3ccc4nccn4c3)cc2)cc1 | 58.1 | 9740 | 77.4 |  |
| C[C@H](Nc1nccc(N2C(=O)OC[C@@H]2[C@H](C)F)n1)c1ccc(-c2ccc(NC(=O)/C=C/c3cccnc3)cc2)cc1 | 24.4 | 6850 | 59.3 |  |
| CC(C)[C@H]1COC(=O)N1c1ccnc(N[C@@H](C)c2ccc(-c3ccc(NC(=O)c4cnccn4)cc3)cc2)n1 | 241 | 19700 | 579 |  |
| C[C@H](Nc1nccc(N2C(=O)OC[C@@H]2[C@H](C)F)n1)c1ccc(-c2ccc(NC(=O)/C=C/c3cccnc3)cc2)cn1 | 53.2 | 14000 | 342 |  |
| C[C@H](Nc1nccc(N2C(=O)OC[C@@H]2[C@@H](C)OC(C)(C)C)n1)c1ccc(-c2ccc(NC(=O)c3ccc4nccn4c3)cc2)cc1 | 12.6 | 5790 | 57 |  |
| N#Cc1ccnc(N2C(=O)CC[C@H]2C(=O)N(c2cncc(F)c2)[C@H](C(=O)NC2CC(F)(F)C2)c2ccccc2Cl)c1 [IVOSIDENIB] |  |  |  | viability at 1 µM [10]: 37.8%; IC50 [4]: 67200 nM; Activity [11]: 18%; viability at 1 µM [12]: 27.8%; CI [13]: 0.88; IC50 [5]: 1020 nM; Activity [14]: 49.6%; IC50 [6]: 89300 nM; IC50 [15]: 2510 nM; CI [16]: 0.78; IC50 [7]: 980 nM; IC50 [8]: 3060 nM; IC50 [9]: 100000 nM; Activity [17]: 4.59%; CI [18]: 0.88; IC50 [19]: 560 nM |
| CC(C)[C@H]1COC(=O)N1c1ccnc(N[C@@H](C)c2ccc(-c3ccc(NC(=O)c4cnc5[nH]ccc5c4)cc3)cc2)n1 | 162 | 6440 | 17.7 |  |
| C[C@H](Nc1nccc(N2C(=O)OC[C@@H]2[C@@H](C)O)n1)c1ccc(-c2ccc(NC(=O)/C=C/c3cccnc3)cc2)cc1 | 32.6 | 6460 | 57 |  |
| C[C@H](Nc1nccc(N2C(=O)OC[C@@H]2[C@H](C)F)n1)c1ccc(-c2ccc(NC(=O)c3ccc4nccn4c3)cc2)cn1 | 24.3 | 26100 | 369 |  |
| C[C@H](Nc1nccc(N2C(=O)OC[C@@H]2Cc2ccccc2)n1)c1ccc(-c2ccc(NC(=O)/C=C/c3cccnc3)cc2)cc1 | 38 | 32800 | 130 |  |
| C[C@H](Nc1nccc(N2C(=O)OC[C@@H]2c2ccccc2)n1)c1ccc(-c2ccc(NC(=O)/C=C/c3cccnc3)cc2)cc1 | 221 | 36500 | 147 |  |
| CC(C)[C@H]1COC(=O)N1c1ccnc(N[C@@H](C)c2ccc(-c3ccc(NC(=O)NCc4cccnc4)cc3)cc2)n1 | 374 | 27000 | 1020 |  |
| C[C@H](Nc1nccc(N2C(=O)OC[C@@H]2[C@H](C)F)n1)c1ccc(-c2ccc(NC(=O)COc3cccnc3)cc2)cn1 | 32.2 | 21100 | 419 |  |
| C[C@H](Nc1nccc(N2C(=O)OC[C@@H]2[C@H](C)F)n1)c1ccc(-c2ccc(NC(=O)c3ccc4nccn4c3)cc2)cc1 | 39.8 | 7330 | 231 |  |
